Converted amounts (≈) assume the structure as drawn. Where a SMILES comes first, the peptide text is derived from it. Bridges are numbered along the chain shown (N, C = ends). [ ]: non-standard residue; d: D form. The star is where a group is joined. Benzoyl(4-Ph) = O=C(c1ccc(-c2ccccc2)cc1)*; Bip = N[C@@H](Cc1ccc(-c2ccccc2)cc1)C(=O)O; Octanoyl = CCCCCCCC(=O)*; Dab = NCC[C@H](N)C(=O)O
Assays:
Type in all cases: functional
[1] = test system: Pseudomonas aeruginosa; test: Antibacterial activity against multidrug-resistant Pseudomonas aeruginosa KUB2705 by agar dilution method
[2] = test system: Pseudomonas aeruginosa; test: Antibacterial activity against amikacin/ciprofloxacin-resistant Pseudomonas aeruginosa KUB2704 by agar dilution method
[3] = test system: Pseudomonas aeruginosa; test: Antibacterial activity against amikacin/imipenem-resistant Pseudomonas aeruginosa KUB2703 by agar dilution method
[4] = test system: Pseudomonas aeruginosa; test: Antibacterial activity against Pseudomonas aeruginosa E-2 by agar dilution method
[5] = test system: Pseudomonas aeruginosa; test: Antibacterial activity against Pseudomonas aeruginosa PAO1 by agar dilution method

| Molecule | MIC [1] | MIC [2] | MIC [3] | MIC [4] | MIC [5] |
| --- | --- | --- | --- | --- | --- |
| C[C@@H](O)[C@@H]1NC(=O)[C@H](CCN)NC(=O)[C@H](CCN)NC(=O)[C@H](Cc2ccccc2)NC(=O)[C@@H](Cc2ccc(-c3ccccc3)cc2)NC(=O)[C@H](CCN)NC(=O)[C@@H](NC(=O)[C@H](CCN)NC(=O)[C@@H](NC(=O)[C@H](CCN)NC(=O)c2ccccc2)[C@@H](C)O)CCNC1=O | 8 µg/mL (≈ 6.26 µM) | 8 µg/mL (≈ 6.26 µM) | 8 µg/mL (≈ 6.26 µM) | 8 µg/mL (≈ 6.26 µM) | 4 µg/mL (≈ 3.13 µM) |
| CCCCCCCC(=O)N[C@@H](CCN(C)C)C(=O)N[C@H](C(=O)N[C@@H](CCN)C(=O)N[C@H]1CCNC(=O)[C@H]([C@@H](C)O)NC(=O)[C@H](CCN)NC(=O)[C@H](CCN)NC(=O)[C@H](CC(C)C)NC(=O)[C@@H](CC(C)C)NC(=O)[C@H](CCN)NC1=O)[C@@H](C)O | 4 µg/mL (≈ 3.38 µM) | 8 µg/mL (≈ 6.76 µM) | > 16 µg/mL | 4 µg/mL (≈ 3.38 µM) | 8 µg/mL (≈ 6.76 µM) |
| C[C@@H](O)[C@@H]1NC(=O)[C@H](CCN)NC(=O)[C@H](CCN)NC(=O)[C@H](Cc2ccc(-c3ccccc3)cc2)NC(=O)[C@@H](Cc2ccccc2)NC(=O)[C@H](CCN)NC(=O)[C@@H](NC(=O)[C@H](CCN)NC(=O)[C@@H](NC(=O)[C@H](CCN)NC(=O)c2ccc(-c3ccccc3)cc2)[C@@H](C)O)CCNC1=O ({Benzoyl(4-Ph)}-[Dab]T[Dab][Dab][Dab][dF][Bip][Dab][Dab]T; lactam 4-C) | 16 µg/mL (≈ 11.8 µM) | 16 µg/mL (≈ 11.8 µM) | 16 µg/mL (≈ 11.8 µM) | 16 µg/mL (≈ 11.8 µM) | 16 µg/mL (≈ 11.8 µM) |
| CCCCCCCC(=O)N[C@@H](CCN)C(=O)N[C@H](C(=O)N[C@@H](CCN)C(=O)N[C@H]1CCNC(=O)[C@H]([C@@H](C)O)NC(=O)[C@H](CCN(C)C)NC(=O)[C@H](CCN)NC(=O)[C@H](CC(C)C)NC(=O)[C@@H](CC(C)C)NC(=O)[C@H](CCN)NC1=O)[C@@H](C)O | 16 µg/mL (≈ 13.5 µM) | > 16 µg/mL | > 16 µg/mL | > 16 µg/mL | > 16 µg/mL |
| CCCCCCCCC(CCCCCCCC)C(=O)N[C@@H](CCN)C(=O)N[C@H](C(=O)N[C@@H](CCN)C(=O)N[C@H]1CCNC(=O)[C@H]([C@@H](C)O)NC(=O)[C@H](CCN)NC(=O)[C@H](CCN)NC(=O)[C@H](CC(C)C)NC(=O)[C@@H](CC(C)C)NC(=O)[C@H](CCN)NC1=O)[C@@H](C)O | > 16 µg/mL | > 16 µg/mL | > 16 µg/mL | > 16 µg/mL | > 16 µg/mL |
| C[C@@H](O)[C@@H]1NC(=O)[C@H](CCN)NC(=O)[C@H](CCN)NC(=O)[C@H](Cc2ccc(-c3ccccc3)cc2)NC(=O)[C@@H](Cc2ccccc2)NC(=O)[C@H](CCN)NC(=O)[C@@H](NC(=O)[C@H](CCN)NC(=O)[C@@H](NC(=O)[C@H](CCN)NC(=O)c2ccccc2)[C@@H](C)O)CCNC1=O | 8 µg/mL (≈ 6.26 µM) | 8 µg/mL (≈ 6.26 µM) | 8 µg/mL (≈ 6.26 µM) | 16 µg/mL (≈ 12.5 µM) | 8 µg/mL (≈ 6.26 µM) |
| CCCCCCCC(=O)N[C@@H](CCN)C(=O)N[C@H](C(=O)N[C@@H](CCN)C(=O)N[C@H]1CCNC(=O)[C@H]([C@@H](C)O)NC(=O)[C@H](CCN)NC(=O)[C@H](CCN(C)C)NC(=O)[C@H](CC(C)C)NC(=O)[C@@H](CC(C)C)NC(=O)[C@H](CCN)NC1=O)[C@@H](C)O | 4 µg/mL (≈ 3.38 µM) | 4 µg/mL (≈ 3.38 µM) | 4 µg/mL (≈ 3.38 µM) | 2 µg/mL (≈ 1.69 µM) | 4 µg/mL (≈ 3.38 µM) |
| C[C@@H](O)[C@@H]1NC(=O)[C@H](CCN)NC(=O)[C@H](CCN)NC(=O)[C@H](Cc2ccccc2)NC(=O)[C@@H](Cc2ccccc2)NC(=O)[C@H](CCN)NC(=O)[C@@H](NC(=O)[C@H](CCN)NC(=O)[C@@H](NC(=O)[C@H](CCN)NC(=O)c2ccccc2)[C@@H](C)O)CCNC1=O | 2 µg/mL (≈ 1.66 µM) | 2 µg/mL (≈ 1.66 µM) | 4 µg/mL (≈ 3.33 µM) | 2 µg/mL (≈ 1.66 µM) | 16 µg/mL (≈ 13.3 µM) |
| CCCCCCCC(=O)N[C@@H](CCN)C(=O)N[C@H](C(=O)N[C@@H](CCN)C(=O)N[C@H]1CCNC(=O)[C@H]([C@@H](C)O)NC(=O)[C@H](CCN)NC(=O)[C@H](CCN)NC(=O)[C@H](CC(C)C)NC(=O)[C@@H](CC(C)C)NC(=O)[C@H](CCN)NC1=O)[C@@H](C)O (Octanoyl-[Dab]T[Dab][Dab][Dab][dL]L[Dab][Dab]T; lactam 4-C) | 4 µg/mL (≈ 3.46 µM) | 8 µg/mL (≈ 6.92 µM) | 16 µg/mL (≈ 13.8 µM) | 4 µg/mL (≈ 3.46 µM) | 8 µg/mL (≈ 6.92 µM) |
| C[C@@H](O)[C@@H]1NC(=O)[C@H](CCN)NC(=O)[C@H](CCN)NC(=O)[C@H](Cc2ccc(-c3ccccc3)cc2)NC(=O)[C@@H](Cc2ccccc2)NC(=O)[C@H](CCN)NC(=O)[C@@H](NC(=O)[C@H](CCN)NC(=O)[C@@H](NC(=O)[C@H](CCN)NC(=O)c2cccc(-c3ccccc3)c2)[C@@H](C)O)CCNC1=O | 16 µg/mL (≈ 11.8 µM) | > 16 µg/mL | > 16 µg/mL | > 16 µg/mL | 16 µg/mL (≈ 11.8 µM) |
| CCCCC/C=C\C/C=C\CCCCCCCC(=O)N[C@@H](CCN)C(=O)N[C@H](C(=O)N[C@@H](CCN)C(=O)N[C@H]1CCNC(=O)[C@H]([C@@H](C)O)NC(=O)[C@H](CCN)NC(=O)[C@H](CCN)NC(=O)[C@H](CC(C)C)NC(=O)[C@@H](CC(C)C)NC(=O)[C@H](CCN)NC1=O)[C@@H](C)O | > 16 µg/mL | > 16 µg/mL | > 16 µg/mL | 16 µg/mL (≈ 12.4 µM) | > 16 µg/mL |
| C[C@@H](O)[C@@H]1NC(=O)[C@H](CCN)NC(=O)[C@H](CCN)NC(=O)[C@H](Cc2ccccc2)NC(=O)[C@@H](Cc2ccc(-c3ccccc3)cc2)NC(=O)[C@H](CCN)NC(=O)[C@@H](NC(=O)[C@H](CCN)NC(=O)[C@@H](NC(=O)[C@H](CCN)NC(=O)c2ccc(-c3ccccc3)cc2)[C@@H](C)O)CCNC1=O | 16 µg/mL (≈ 11.8 µM) | 16 µg/mL (≈ 11.8 µM) | 16 µg/mL (≈ 11.8 µM) | 16 µg/mL (≈ 11.8 µM) | 16 µg/mL (≈ 11.8 µM) |
| CCCCCCCCC(CCCCCC)C(=O)N[C@@H](CCN)C(=O)N[C@H](C(=O)N[C@@H](CCN)C(=O)N[C@H]1CCNC(=O)[C@H]([C@@H](C)O)NC(=O)[C@H](CCN)NC(=O)[C@H](CCN)NC(=O)[C@H](CC(C)C)NC(=O)[C@@H](CC(C)C)NC(=O)[C@H](CCN)NC1=O)[C@@H](C)O (stereo not given in full) | > 16 µg/mL | > 16 µg/mL | 16 µg/mL (≈ 12.6 µM) | 16 µg/mL (≈ 12.6 µM) | > 16 µg/mL |
| CCCCCCCC(=O)N[C@@H](CCN)C(=O)N[C@H](C(=O)N[C@@H](CCN)C(=O)N[C@H]1CCNC(=O)[C@H]([C@@H](C)O)NC(=O)[C@H](CCN)NC(=O)[C@H](CCN)NC(=O)[C@H](CC(C)C)NC(=O)[C@@H](CC(C)C)NC(=O)[C@H](CCN(C)C)NC1=O)[C@@H](C)O | 8 µg/mL (≈ 6.76 µM) | > 16 µg/mL | > 16 µg/mL | > 16 µg/mL | > 16 µg/mL |
| COLISTIN | 4 µg/mL | 4 µg/mL | 2 µg/mL | 2 µg/mL | 4 µg/mL |
| C[C@@H](O)[C@@H]1NC(=O)[C@H](CCN)NC(=O)[C@H](CCN)NC(=O)[C@H](Cc2ccccc2)NC(=O)[C@@H](Cc2ccccc2)NC(=O)[C@H](CCN)NC(=O)[C@@H](NC(=O)[C@H](CCN)NC(=O)[C@@H](NC(=O)[C@H](CCN)NC(=O)c2cccc(-c3ccccc3)c2)[C@@H](C)O)CCNC1=O | 4 µg/mL (≈ 3.13 µM) | 8 µg/mL (≈ 6.26 µM) | 8 µg/mL (≈ 6.26 µM) | 8 µg/mL (≈ 6.26 µM) | 8 µg/mL (≈ 6.26 µM) |
| C[C@@H](O)[C@@H]1NC(=O)[C@H](CCN)NC(=O)[C@H](CCN)NC(=O)[C@H](Cc2ccccc2)NC(=O)[C@@H](Cc2ccc(-c3ccccc3)cc2)NC(=O)[C@H](CCN)NC(=O)[C@@H](NC(=O)[C@H](CCN)NC(=O)[C@@H](NC(=O)[C@H](CCN)NC(=O)c2cccc(-c3ccccc3)c2)[C@@H](C)O)CCNC1=O | 16 µg/mL (≈ 11.8 µM) | 16 µg/mL (≈ 11.8 µM) | 16 µg/mL (≈ 11.8 µM) | > 16 µg/mL | 16 µg/mL (≈ 11.8 µM) |
| CCCCCCCC(=O)N[C@@H](CCN)C(=O)N[C@H](C(=O)N[C@@H](CCN(C)C)C(=O)N[C@H]1CCNC(=O)[C@H]([C@@H](C)O)NC(=O)[C@H](CCN)NC(=O)[C@H](CCN)NC(=O)[C@H](CC(C)C)NC(=O)[C@@H](CC(C)C)NC(=O)[C@H](CCN)NC1=O)[C@@H](C)O | 4 µg/mL (≈ 3.38 µM) | 4 µg/mL (≈ 3.38 µM) | 4 µg/mL (≈ 3.38 µM) | 2 µg/mL (≈ 1.69 µM) | 4 µg/mL (≈ 3.38 µM) |
| C[C@@H](O)[C@@H]1NC(=O)[C@H](CCN)NC(=O)[C@H](CCN)NC(=O)[C@H](Cc2ccccc2)NC(=O)[C@@H](Cc2ccccc2)NC(=O)[C@H](CCN)NC(=O)[C@@H](NC(=O)[C@H](CCN)NC(=O)[C@@H](NC(=O)[C@H](CCN)NC(=O)c2ccc(-c3ccccc3)cc2)[C@@H](C)O)CCNC1=O | 8 µg/mL (≈ 6.26 µM) | 8 µg/mL (≈ 6.26 µM) | 8 µg/mL (≈ 6.26 µM) | 8 µg/mL (≈ 6.26 µM) | 4 µg/mL (≈ 3.13 µM) |
